According to the NIST ThermoML archive (doi:10.1021/je900387e):

Assay: xn = mol fraction of the nth substance listed
Details: Liquid, Pycnometric method

CCCCCl [1-chlorobutane] + O=C=O
Details	mass density [kg/m3]
308.2 K, 10510 kPa, x1 = 0.0981	874
308.2 K, 10850 kPa, x1 = 0.1488	888
308.2 K, 11620 kPa, x1 = 0.1488	893
308.2 K, 12430 kPa, x1 = 0.1488	898
308.2 K, 13270 kPa, x1 = 0.1488	904
308.2 K, 13660 kPa, x1 = 0.1488	906
308.2 K, 14090 kPa, x1 = 0.1488	909
308.2 K, 14420 kPa, x1 = 0.1488	911
308.2 K, 14870 kPa, x1 = 0.1488	914
313.1 K, 6760 kPa, x1 = 0.1488	825
313.1 K, 6980 kPa, x1 = 0.1488	828
313.1 K, 7130 kPa, x1 = 0.0981	791
313.1 K, 7310 kPa, x1 = 0.0981	795
313.1 K, 7310 kPa, x1 = 0.1488	832
313.1 K, 7460 kPa, x1 = 0.0744	754
313.1 K, 7570 kPa, x1 = 0.0981	802
313.1 K, 7640 kPa, x1 = 0.0744	759
313.1 K, 7740 kPa, x1 = 0.1488	837
313.1 K, 7770 kPa, x1 = 0.0744	764
313.1 K, 7860 kPa, x1 = 0.0981	807
313.1 K, 7890 kPa, x1 = 0.0483	693
313.1 K, 7940 kPa, x1 = 0.0483	697
313.1 K, 7940 kPa, x1 = 0.0744	769
313.1 K, 8000 kPa, x1 = 0.0483	701
313.1 K, 8090 kPa, x1 = 0.0744	773
313.1 K, 8100 kPa, x1 = 0.0483	707
313.1 K, 8180 kPa, x1 = 0.0981	813
313.1 K, 8190 kPa, x1 = 0.1488	841
313.1 K, 8210 kPa, x1 = 0.0483	713
313.1 K, 8220 kPa, x1 = 0.0243	545
313.1 K, 8230 kPa, x1 = 0.0243	549
313.1 K, 8250 kPa, x1 = 0.0243	555
313.1 K, 8270 kPa, x1 = 0.0744	778
313.1 K, 8280 kPa, x1 = 0.0243	563
313.1 K, 8300 kPa, x1 = 0.0243	571
313.1 K, 8330 kPa, x1 = 0.0243	580
313.1 K, 8340 kPa, x1 = 0.0483	719
313.1 K, 8360 kPa, x1 = 0.0243	588
313.1 K, 8400 kPa, x1 = 0.0243	597
313.1 K, 8450 kPa, x1 = 0.0483	725
313.1 K, 8470 kPa, x1 = 0.0243	610
313.1 K, 8470 kPa, x1 = 0.0744	782
313.1 K, 8510 kPa, x1 = 0.0981	819
313.1 K, 8550 kPa, x1 = 0.0243	623
313.1 K, 8600 kPa, x1 = 0.0483	732
313.1 K, 8650 kPa, x1 = 0.0243	637
313.1 K, 8680 kPa, x1 = 0.0744	787
313.1 K, 8760 kPa, x1 = 0.0483	738
313.1 K, 8770 kPa, x1 = 0.0243	651
313.1 K, 8890 kPa, x1 = 0.0981	825
313.1 K, 8900 kPa, x1 = 0.0744	792
313.1 K, 8910 kPa, x1 = 0.1488	849
313.1 K, 8930 kPa, x1 = 0.0243	666
313.1 K, 8940 kPa, x1 = 0.0483	745
313.1 K, 9130 kPa, x1 = 0.0243	682
313.1 K, 9150 kPa, x1 = 0.0483	751
313.1 K, 9150 kPa, x1 = 0.0744	797
313.1 K, 9260 kPa, x1 = 0.0981	830
313.1 K, 9370 kPa, x1 = 0.0483	759
313.1 K, 9390 kPa, x1 = 0.0243	698
313.1 K, 9410 kPa, x1 = 0.0744	802
313.1 K, 9450 kPa, x1 = 0.1488	853
313.1 K, 9620 kPa, x1 = 0.0483	765
313.1 K, 9670 kPa, x1 = 0.0744	807
313.1 K, 9710 kPa, x1 = 0.0243	716
313.1 K, 9720 kPa, x1 = 0.0981	837
313.1 K, 9810 kPa, x1 = 0.0483	770
313.1 K, 9960 kPa, x1 = 0.0744	812
313.1 K, 10000 kPa, x1 = 0.0483	775
313.1 K, 10020 kPa, x1 = 0.0243	729
313.1 K, 10190 kPa, x1 = 0.0981	843
313.1 K, 10220 kPa, x1 = 0.0483	780
313.1 K, 10270 kPa, x1 = 0.1488	860
313.1 K, 10280 kPa, x1 = 0.0243	738
313.1 K, 10290 kPa, x1 = 0.0744	817
313.1 K, 10460 kPa, x1 = 0.0483	785
313.1 K, 10550 kPa, x1 = 0.0243	748
313.1 K, 10620 kPa, x1 = 0.0744	823
313.1 K, 10680 kPa, x1 = 0.0483	790
313.1 K, 10690 kPa, x1 = 0.0981	849
313.1 K, 10700 kPa, x1 = 0.0243	753
313.1 K, 10850 kPa, x1 = 0.0243	758
313.1 K, 10860 kPa, x1 = 0.1488	865
313.1 K, 10950 kPa, x1 = 0.0483	795
